Reference: patent US11234960B2, “Compositions and methods for improving mitochondrial function and treating neurodegenerative diseases and cognitive disorders” (Amazentis SA, priority 2010, dated 2022)

Experiments:
Type in all cases: in vivo
[1] = tested on: C57BL/6J mice exposed to chronic unpredictable stress; test: Contextual fear conditioning in chronically stressed mice; conditions: 25 mg/kg/d in diet, daily exposure for four days (FIG. 31)
Description: Three weeks before the initiation of the chronic stress protocol mice were separated into four different groups. One group received standard mouse chow diet (Control), while the remaining three groups received varying doses of extract 1011, an extract derived from pomegranate juice. Low dose corresponded to an extract dose of 21 mg/kg/d of gallic acid equivalents of polyphenols (GAE PPE), the medium dose corresponded to an extract dose of 43 mg/kg/d of GAE PPE, the high dose corresponded to an extract dose of 86 mg/kg/d of GAE PPE (see Table 5).
Three weeks before the initiation of the chronic stress protocol, mice were separated into two groups. […]
The unpredictable chronic stress protocol involved exposing animals to a daily stressful situation at an unpredictable moment for 4 weeks (between 8 am and 4 pm, and randomly distributed over the 28 days). […] All animals were weighed and the state of their coat was evaluated on a regular basis (every 3-5 days). […]
Contextual fear conditioning was used to test the effect of pomegranate extract on anxiety induction (i.e., learned anxiety) in mice in response to contextual recognition. […] To determine the effect of chronic stress and the various doses of pomegranate extract on the level of anxiety induced by this contextual memory, the level of anxiety-induced behavior in response to this context was measured. […]

[2] = tested on: maternally separated mice; test: Morris water maze in early-life stress mice; conditions: early-life stressed mice, 90 mg/kg/day (FIG. 45)
Description: (§1) At postnatal day 1, pups were culled to have 6 pups per mother. From postnatal day 1 to 14, unpredictable maternal separation (MS) of a period of 3 hours daily was carried out. Maternal separation was performed at random times (from 8 am to 2 pm) to avoid the habituation of the mother to the procedure. The protocol consisted of removing pups from their mother to another cage at room temperature for a 3 hour period, after which the pups were returned to their original nest. These groups are denoted as early-life stress in the figures. A control group of dam/pups was left undisturbed and is denoted in the figures as normal.
(§2) One week after maternal separation mice were separated into two groups. One control group received the standard mouse chow diet (Untreated), while the other group received the ellagitannin punicalagin admixed into the food and designed to deliver a dose of 90 mg/kg/day to the mice. Treatment with the diet began 1 week after the termination of the maternal separation treatment. […]
The Morris water maze behavioral assay was employed to assess the cognitive impact of maternal separation. In this assay, cognitive learning is measured by the ability of a mouse to locate a hidden platform in a pool of opaque water. […] Escape latency to reach the platform was measured by a video tracking system.

[3] = tested on: maternally separated mice; test: Elevated O-maze in early-life stress mice; conditions: 90 mg/kg/day in food (FIG. 40)
Description: as §1, §2
To examine the effect of early life stress, mice were placed at the entrance of one of the areas of the maze with the 5 cm walls, with the nose facing the closed arm, and were allowed to explore the EOM for 5 min. […] The time spent in each arm (closed versus open) was calculated, with an entry into the arm only being considered to have occurred when the animal placed all four paws in the arm.

| SMILES | extinction of memory of the adverse context (freezing) [1] | escape latency in Morris water maze (cognitive learning) [2] | time spent in open sections of O-maze (risk taking) [3] |
| --- | --- | --- | --- |
| O=c1oc2cc(O)ccc2c2ccc(O)cc12 [urolithin A, 3,8-Dihydroxydibenzo-α-pyrone] | significant improvement in adverse memory extinction | – | – |
| O=C1O[C@H]2[C@@H]3OC(=O)c4cc(O)c(O)c(O)c4-c4c(O)c(O)c5oc(=O)c6c(c(O)c(O)c7oc(=O)c4c5c76)-c4c(cc(O)c(O)c4O)C(=O)OC[C@H]3OC(O)[C@@H]2OC(=O)c2cc(O)c(O)c(O)c2-c2c1cc(O)c(O)c2O (mixture of isomers) [punicalagin, 2,3 hexahydroxydiphenoyl-4,6-gallagylglucose] | – | reducing the time to learn the location of the hidden platform to levels observed in normal non-stressed mice | reversed and normalized their abnormal excessive risk taking behaviour |
